Assay [1] concerns rats. As to the kind of experiment: Haloperidol-induced catalepsy (HIC) model. Format: in vivo, rat. As to conditions: positive control 8 mg/kg.
The test system of assay [2] is rats. As to the kind of experiment: Electroconvulsive threshold (ECT) test. Format: in vivo, rat.
A further assay relates to mice (strain NLMN). Kind of assay: Forced swim test. Format: in vivo, mouse. As to conditions: positive control 32 mg/kg IP.

For `CC(N)Cc1ccccc1` (stereo not shown) [amphetamine], the “anticataleptic activity (catalepsy score)” value in the assay on rats [1] was “showed the expected robust anticataleptic activity”.

Turning to `CN1C(=O)CN=C(c2ccccc2)c2cc(Cl)ccc21` [diazepam], the “anticonvulsant activity (electroconvulsive threshold)” value with rats [2] (positive control 16 mg/kg p.o.) is “showed the expected pro- and anticonvulsant activities”.

Consider `CN(C)CCCN1c2ccccc2CCc2ccccc21` [imipramine], for which the “antidepressant activity (immobility time)” value in the assay on mice (strain NLMN) was “showed the expected antidepressant activity”.

Regarding `Cn1c(=O)c2[nH]cnc2n(C)c1=O` [theophylline, Theophylline], the “proconvulsant activity (electroconvulsive threshold)” value with rats [2] (positive control 128 mg/kg p.o.) was “showed the expected pro- and anticonvulsant activities”.

For the origin of these results see patent publication US10420768B2, “Pyrrolopyrimidine derivatives as NR2B NMDA receptor antagonists” (Rugen Holdings (Cayman) Limited, priority 2014, dated 2019).
